Laboratory results: PubChem BioAssay AID463199 (Broad Institute, 2010)
Calls of active or inactive are those of the source.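 The calls were made as follows: active = AC50, the dose giving half-maximal effect, exceeds a fixed cutoff for a compound that rescues yeast growth under heat; inactive = the rest, inconclusive results apart.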

What follows are molecules tested on S. cerevisiae Burl-1 ts mutant growth, BacTiter-Glo, 38.5C 24 h (assay: growth induction of Burl-1 ts yeast mutant, dose response, counter-screen for SUMOylation pathway inhibitor project, whole organism, S. cerevisiae, luminescence (AID 463199)).

SMILES | AC50
CCn1c(CSCc2ccc(F)cc2)nnc1SCC(=O)NCc1ccccc1 | > 42 µM (inactive)
COc1cccc(C2CC(c3cccc(NS(C)(=O)=O)c3)=NN2C(=O)c2ccccc2)c1OC (stereo not given) | > 42 µM (inactive)
CC(=O)N1CCc2cc(S(=O)(=O)CCC(=O)N3CCN(C(=O)c4ccco4)CC3)ccc21 | > 42 µM (inactive)
CCC(Cc1ccccc1)NC(=O)C1CCN(c2nn3c(=O)cc(C)nc3s2)CC1 (stereo not given) | > 42 µM (inactive)
CCOc1cc(S(=O)(=O)NCc2ccc3c(c2)OCO3)c(C)cc1C | > 42 µM (inactive)
NC(=O)CC(NC(=S)NCc1ccccc1)C(=O)O (stereo not given) | > 42 µM (inactive)
Cc1ccc(N2C(=O)c3cccc4c(N5CCN(C)CC5)ccc(c34)C2=O)c2cccnc12 | > 42 µM (inactive)
Nc1cc(-c2ccc(Cl)cc2)nn1S(=O)(=O)c1ccc(Cl)cc1 | > 42 µM (inactive)
O=C(CSc1nnc(-c2ccccc2Cl)o1)Oc1ccc(Br)cc1 | > 42 µM (inactive)
CCc1cccc(C)c1NC(=O)CSc1nnc(-c2cc3cc(Br)ccc3o2)n1CC | > 42 µM (inactive)
Cc1ccc(-n2nnnc2C(Cl)(Cl)c2nnnn2-c2ccc(C)cc2)cc1 | > 42 µM (inactive)
O=C(NCc1cccnc1)C1CCN(S(=O)(=O)c2cccnc2)CC1 | > 42 µM (inactive)
O=C(CCc1ccccc1)NNC(=O)c1ccc(Br)cc1 | > 42 µM (inactive)
Clc1ccccc1-c1ccc2ncnc(NCc3cccs3)c2c1 | > 42 µM (inactive)
CN(C)C(=O)c1c2c(nc3ccccc13)CCCC2 | > 42 µM (inactive)
COc1ccc(CNS(=O)(=O)c2ccc3c(c2)CCN3C(=O)C2CCC2)cc1 | > 42 µM (inactive)
O=C(CCC(=O)OCC(=O)c1ccc(Br)cc1)Nc1cccc2cccnc12 | > 42 µM (inactive)
O=C(c1ccccc1F)N1CCCc2ccccc21 | > 42 µM (inactive)
COCC(=O)n1nc(NCc2ccc(OC)cc2)nc1NCc1ccc(OC)cc1 | > 42 µM (inactive)
CC1(OC(=O)CCc2ccccc2)C(=O)C=C2C=C(c3ccc(C#N)cc3)N(CC3CC3)C=C2C1=O (stereo not given) | > 42 µM (inactive)
O=C1CSC(c2ccc(F)c(F)c2)N1c1ccccc1F (stereo not given) | > 42 µM (inactive)
COc1cccc2[nH]c(=O)c(-c3ccccc3)cc12 | > 42 µM (inactive)
CC1CCCC(C)N1C(=O)CSc1nnnn1-c1cccc2c1CCCC2 (stereo not given) | > 42 µM (inactive)
CCOc1c(P(=S)(N(C)C)N(C)C)c(C)nn1-c1ccccc1 | > 42 µM (inactive)
NN1C(=O)NC(c2ccccc2)(c2ccccc2)C1=O | > 42 µM (inactive)

SMILES | AC50
Cc1cc(Cl)c2oc(C(=O)NC3CCC(O)CC3)c(C)c2c1 (stereo not given) | > 42 µM (inactive)
Cc1ccccc1NC1=NCCCS1 | > 42 µM (inactive)
CC(=O)c1ccc(N=C2SCCCN2C(=O)C2CCCC2)cc1 | > 42 µM (inactive)
O=C1c2cccc3c(N4CCCCC4)ccc(c23)C(=O)N1CCO | > 42 µM (inactive)
Cc1ccc(-c2nn(-c3ccccc3)cc2C(=O)N2CCN(c3ccccn3)CC2)cc1 | > 42 µM (inactive)
COc1ccc2cc(C(=O)Nc3ccc(Cl)cc3)sc(=O)c2c1OC | > 42 µM (inactive)
Fc1ccc(-c2n[nH]c(=S)n2CC2CCCO2)cc1 (stereo not given) | > 42 µM (inactive)
CCN1CCCC1CNC(=O)Cn1cnc2ccc(S(=O)(=O)N3CCC(C)CC3)cc2c1=O (stereo not given) | > 42 µM (inactive)
CC(NC(=O)c1cccs1)c1ccc(Br)cc1 (stereo not given) | > 42 µM (inactive)
COc1cccc(/C=C2/C(=O)NN(c3ccc(Br)cc3)C2=O)c1O | > 42 µM (inactive)
O=C(O)CCC(=O)N1N=C(c2c(-c3ccccc3)c3cc(Cl)ccc3[nH]c2=O)CC1c1ccco1 (stereo not given) | > 42 µM (inactive)
Cc1ccccc1C(=O)NN(C)c1nc2ccccc2nc1C(F)(F)F | > 42 µM (inactive)
CCC(C)[C@H]1COCCS(=O)(=O)N1Cc1ccc(C)cc1 (stereo not given in full) | > 42 µM (inactive)
CC(C)(C)C(=O)NC1CCN(CC(=O)Nc2ccc3c(c2)OCO3)CC1 | > 42 µM (inactive)
CCCCC(=O)Nc1nnc(/C=C/c2ccc(OC)cc2)s1 | > 42 µM (inactive)
COc1ccc2c(Cl)c(C(=O)NN3CCN(C)CC3)sc2c1 | > 42 µM (inactive)
N#Cc1ccc(Oc2ccc(S(=O)(=O)N3CCCCC3)cn2)cc1 | > 42 µM (inactive)
O=C(Nc1cccc(C(=O)Nc2ccc(F)cc2F)c1)c1ccccc1 | > 42 µM (inactive)
O=C(NCCCN1CCN(c2ccccc2F)CC1)Nc1ccccc1[N+](=O)[O-] | 25.4 µM
CS(=O)(=O)N1CCC(Oc2ccccc2C(=O)N2CCNC(=O)C2)CC1 | > 42 µM (inactive)
COCCn1c(SCC(=O)Nc2nc3ccccc3s2)nnc1-c1ccoc1C | > 42 µM (inactive)
CN(C(=O)c1ccncc1)c1nnc(-c2cnccn2)s1 | > 42 µM (inactive)
CC1(C)C=C(c2ccc(O)cc2)CC(C)(C)N1 | > 42 µM (inactive)
COC(=O)CCCC(=O)NCC1(N(C)Cc2ccccc2)Cc2ccccc2C1 | > 42 µM (inactive)
CS(=O)(=O)N(CC(=O)N1CCN(c2ccccc2F)CC1)C1CCCCC1 | > 42 µM (inactive)
